# Marks after values point to notes of the source that are not given here.
# Experiments:
# [1] = system: Plasmopara viticola; experiment: Test D: grape downy mildew, spray after inoculation of grape seedlings; assay type: in vivo
# Text: Upon removal, disease ratings were made. […] A dash (-) indicates no test results.
# [2] = system: Phytophthora infestans; experiment: whole plant or invertebrate; assay type: in vivo
# [3] = system: Septoria tritici; experiment: Test J: wheat leaf blotch, preventive spray on wheat seedlings; assay type: in vivo
# Text: A dash (-) indicates no test results.
# [4] = system: fusarium graminearium; experiment: Test I: wheat head scab, preventive spray on wheat seedlings
# Procedure: (the causal agent of wheat head scab) and incubated in a saturated atmosphere at 20° C. for 72 h, and then moved to a growth chamber at 22° C. for 5 days, after which disease ratings were made.
# [5] = system: Puccinia recondita f. sp. tritici; experiment: Test K: wheat leaf rust, preventive spray on wheat seedlings
# [6] = system: Botrytis cinerea; experiment: Test E: tomato botrytis, preventive spray on tomato seedlings
# [7] = system: Septoria nodorum; experiment: Test H: wheat glum blotch, preventive spray on wheat seedlings
# Procedure: (the causal agent of wheat glum blotch) and incubated in a saturated atmosphere at 20° C. for 48 h, and then moved to a growth chamber at 22° C. for 5 days, after which disease ratings were made.
# [8] = system: Erysiphe graminis f. sp. tritici; experiment: Test L: wheat powdery mildew, preventive spray on wheat seedlings
# [9] = system: Pythium aphanidermatum; experiment: Test A: bluegrass pythium blight, preventive spray on bluegrass seedlings
# [10] = system: Rhizoctonia oryzae; experiment: Test G: turf brown patch, preventive spray on creeping bent grass seedlings
# Procedure: (the causal agent of turf brown patch) and incubated in a saturated atmosphere at 27° C. for 24 h, and then moved to a growth chamber at 27° C. for 5 days, after which disease ratings were made.
# [11] = system: Colletotrichum orbiculare; experiment: Test B: cucumber Colletotrichum anthracnose, preventive spray on cucumber seedlings
# [12] = 200 ppm, 100 = 100% disease control, 0 = no control relative to controls
# [13] = 40 ppm (marked *), 100 = 100% disease control, 0 = no control
Structure (SMILES),"Test F disease control rating [2, 12]","Test J disease control rating [3, 13]","Test I disease control rating [4, 12]","Test K disease control rating [5, 13]","Test E disease control rating [6, 13]","Test H disease control rating [7, 13]","Test L disease control rating [8, 13]","Test A disease control rating [9, 12]","Test G disease control rating [10, 13]","Test B disease control rating [11, 13]",also measured
"O=c1c(-n2cccn2)nc(Cl)c(-c2c(F)cccc2F)n1-c1ccccc1 [Compound 161, 5-Chloro-6-(2,6-difluorophenyl)-1-phenyl-3-(1H-pyrazol-1-yl)-2(1H)-pyrazinone]",–,–,–,–,–,–,–,–,–,–,"pest or weed control at 40 ppm ([1]; Plasmopara viticola, 168 h, 40 ppm (*), read-out: Test D disease control rating): 0%; pest or weed control at 40 ppm ([2]; Phytophthora infestans, in Solanum lycopersicum, topical, 144 h, read-out: Test F disease control rating): 0%; pest or weed control at 40 ppm ([3]; Zymoseptoria tritici, 528 h, 40 ppm (*), read-out: Test J disease control rating): 97%; pest or weed control at 40 ppm ([4]; Fusarium, in Triticum aestivum, topical, 192 h, read-out: Test I disease control rating, 40 ppm (*)): 69%; pest or weed control at 40 ppm ([5]; Puccinia recondita, in Triticum aestivum, 192 h, read-out: Test K disease control rating): 100%; pest or weed control at 40 ppm ([6]; Botrytis cinerea, in Solanum lycopersicum, topical, 72 h, read-out: Test E disease control rating): 100%; pest or weed control at 40 ppm ([7]; Parastagonospora nodorum, in Triticum aestivum, topical, 168 h, read-out: Test H disease control rating, 40 ppm (*)): 100%; pest or weed control at 40 ppm ([8]; Blumeria graminis, in Triticum aestivum, 168 h, read-out: Test L disease control rating, 40 ppm (*)): 90%; pest or weed control at 40 ppm ([9]; Pythium aphanidermatum, 120 h, read-out: Test A disease control rating): 0%; pest or weed control at 40 ppm ([10]; Waitea circinata, in Agrostis stolonifera, topical, 144 h, read-out: Test G disease control rating, 40 ppm (*)): 68%; pest or weed control at 40 ppm ([11]; Colletotrichum orbiculare, in Cucumis sativus, 144 h, read-out: Test B disease control rating, 40 ppm (*)): 77%"
CC(C)Cn1c(-c2ccccc2Cl)c(Cl)nc(-n2cncn2)c1=O [compound 192],–,–,–,–,–,–,–,–,–,–,Test D disease control rating ([1]; 40 ppm (*)): 0* %; Test F disease control rating ([2]; 40 ppm (*)): 0* %; Test J disease control rating ([3]; 40 ppm (*)): 98* %; Test I disease control rating ([4]; 40 ppm (*)): 0* %; Test K disease control rating ([5]; 40 ppm (*)): 89* %; Test E disease control rating ([6]; 40 ppm (*)): 99* %; Test H disease control rating ([7]; 40 ppm (*)): 0* %; Test L disease control rating ([8]; 40 ppm (*)): 0* %; Test A disease control rating ([9]; 40 ppm (*)): 0* %; Test G disease control rating ([10]; 40 ppm (*)): 31* %; Test B disease control rating ([11]; 40 ppm (*)): 0* %
CCC(C)Cn1c(-c2c(F)cccc2F)c(Cl)nc(-n2ccc(C(F)(F)F)n2)c1=O (centres unmarked) [compound 63],–,–,–,–,–,–,–,–,–,–,Test D disease control rating ([1]; 200 ppm): 0%; Test F disease control rating ([2]; 200 ppm): 0%; Test J disease control rating ([3]; 200 ppm): 90%; Test I disease control rating ([4]; 200 ppm): 0%; Test K disease control rating ([5]; 200 ppm): 89%; Test E disease control rating ([6]; 200 ppm): 0%; Test H disease control rating ([7]; 200 ppm): 0%; Test L disease control rating ([8]; 200 ppm): 0%; Test A disease control rating ([9]; 200 ppm): 0%; Test G disease control rating ([10]; 200 ppm): 72%; Test B disease control rating ([11]; 200 ppm): 0%
N#Cc1nc(Cl)c(-c2c(F)cccc2F)n(Cc2ccccc2)c1=O [compound 106],–,–,–,–,–,–,–,–,–,–,Test D disease control rating ([1]; 200 ppm): 0%; Test F disease control rating ([2]; 200 ppm): 0%; Test J disease control rating ([3]; 200 ppm): 12%; Test I disease control rating ([4]; 200 ppm): 0%; Test K disease control rating ([5]; 200 ppm): 91%; Test E disease control rating ([6]; 200 ppm): 0%; Test H disease control rating ([7]; 200 ppm): 0%; Test L disease control rating ([8]; 200 ppm): 94%; Test A disease control rating ([9]; 200 ppm): 0%; Test G disease control rating ([10]; 200 ppm): 0%; Test B disease control rating ([11]; 200 ppm): 0%
O=c1c(-n2cccn2)nc(Cl)c(-c2c(F)cccc2F)n1-c1ccccc1OC(F)(F)F [compound 397],0%,94* %,0%,80* %,99* %,94* %,0* %,0%,0* %,37* %,–
CC(C)(C)Cn1c(-c2c(F)cccc2F)c(Cl)nc(-n2cccn2)c1=O [compound 59],–,–,–,–,–,–,–,–,–,–,Test D disease control rating ([1]; 200 ppm): 0%; Test F disease control rating ([2]; 200 ppm): 0%; Test J disease control rating ([3]; 40 ppm (*)): 100* %; Test I disease control rating ([4]; 200 ppm): 0%; Test K disease control rating ([5]; 40 ppm (*)): 94* %; Test E disease control rating ([6]; 40 ppm (*)): 100* %; Test H disease control rating ([7]; 40 ppm (*)): 73* %; Test L disease control rating ([8]; 40 ppm (*)): 98* %; Test A disease control rating ([9]; 200 ppm): 0%; Test G disease control rating ([10]; 40 ppm (*)): 49* %
O=c1c(-n2cccn2)nc(Cl)c(-c2c(F)cccc2F)n1-c1ccc(OC(F)(F)F)cc1 [compound 398],0%,97* %,0%,97* %,98* %,75* %,78* %,0%,24* %,56* %,–
COc1cccc(-n2c(-c3c(F)cccc3F)c(Cl)nc(-n3cccn3)c2=O)c1 [compound 394],0%,100* %,78%,100* %,99* %,100* %,99* %,0%,47* %,99* %,–
COc1ccc(-n2c(-c3c(F)cccc3F)c(Cl)nc(-n3cccn3)c2=O)cc1 [compound 395],0%,99* %,0%,99* %,80* %,95* %,0* %,0%,0* %,57* %,–
COc1ccccc1-n1c(-c2c(F)cccc2F)c(Cl)nc(-n2cccn2)c1=O [compound 393],0%,33* %,0%,89* %,29* %,73* %,0* %,0%,0* %,41* %,–
O=c1c(-n2cccn2)nc(Cl)c(-c2c(F)cccc2F)n1-c1ccccc1C(F)(F)F [compound 399],0%,100* %,0%,99* %,97* %,90* %,93* %,0%,24* %,88* %,–
Cc1ccn(-c2nc(Cl)c(-c3c(F)cccc3F)n(Cc3ccc(F)cc3)c2=O)n1 [compound 341],–,98* %,–,100* %,–,99* %,63* %,–,0* %,52* %,"Test D disease control rating [1, 13]: 79* %; Test F disease control rating [2, 13]: 0* %; Test I disease control rating [4, 13]: 0* %; Test A disease control rating [9, 13]: 0* %"
O=c1c(-n2cccn2)nc(Cl)c(-c2c(F)cccc2F)n1-c1ccccc1OC(F)(F)F [compound 396],0%,85* %,0%,94* %,70* %,89* %,91* %,0%,0* %,13* %,–
